Assay results published in the CheMixHub viscosity set.
Values joined by “and” are separate entries in the source; they are usually repeats but may differ in a detail not shown here. Equal entries are not always repeated.

Key:
[1] = xn = mol fraction of the nth substance listed

CCCCCCCC[n+]1ccccc1.F[B-](F)(F)F
101.3 kPa
Settings | viscosity [mPa·s]
293.15 K | 319.7
298.15 K | 233.5
303.15 K | 171.9
308.15 K | 134.8
313.15 K | 105.7
318.15 K | 81.56
323.15 K | 64.89

CCCCCC[n+]1ccn(C)c1.[I-]
101 kPa
Settings | viscosity [mPa·s]
293.15 K | 2633
298.15 K | 1742
303.15 K | 1175
308.15 K | 801.8
313.15 K | 563.5
318.15 K | 404.7
323.15 K | 278.8

CCC[N+](C)(C)C.O=S(=O)([N-]S(=O)(=O)C(F)(F)F)C(F)(F)F
101.3 kPa
Settings | viscosity [mPa·s]
293.15 K | 102
298.15 K | 79.4
303.15 K | 63.2
308.15 K | 51.1
313.15 K | 42
318.15 K | 35
323.15 K | 29.5

CCNc1ccccc1
Settings | viscosity
293.15 K, 101 kPa | 2.282 mPa·s
298 K, 101 kPa | 1.947 mPa·s
298 K, 101.3 kPa | 1.952 mPa·s
298.15 K, 101 kPa | 1.971 mPa·s and 1.75 mPa·s and 1.959 mPa·s
303 K, 101 kPa | 1.741 mPa·s
303 K, 101.3 kPa | 1.71 mPa·s
303.15 K, 100 kPa | 1.742 mPa·s
308 K, 101 kPa | 1.549 mPa·s
308 K, 101.3 kPa | 1.559 mPa·s
308.15 K, 101.33 kPa | 1.5 mPa·s
313 K, 101 kPa | 1.392 mPa·s
313 K, 101.3 kPa | 1.389 mPa·s
313.15 K, 101 kPa | 1.405 mPa·s and 1.391 mPa·s and 1.34 mPa·s
318 K, 101 kPa | 1.263 mPa·s
318 K, 101.3 kPa | 1.251 mPa·s
318.15 K, 101 kPa | 1.264 mPa·s
323.15 K, 101 kPa | 1.146 mPa·s and 1.07 mPa·s and 1.124 mPa·s

CCOC=O
viscosity
Settings | 293.15 K | 298.15 K | 303.15 K | 308.15 K | 313.15 K | 318.15 K | 323.15 K
100 kPa | – | 0.38 mPa·s and 0.38 mPa·s | 0.36 mPa·s and 0.36 mPa·s | – | 0.328 mPa·s | 0.31 mPa·s and 0.31 mPa·s | 0.29 mPa·s and 0.29 mPa·s
101 kPa | 0.418 mPa·s | 0.3972 mPa·s | 0.378 mPa·s | 0.361 mPa·s | – | – | 0.308 mPa·s
101.33 kPa | – | 0.379 mPa·s | – | – | – | – | –

ClCCCl
Settings | viscosity
293.15 K, 101 kPa | 0.8397 mPa·s
298 K, 101.33 kPa | 0.77 mPa·s
303 K, 101.33 kPa | 0.722 mPa·s
303.15 K, 101.3 kPa | 0.73 mPa·s
303.15 K, 101.33 kPa | 0.7295 mPa·s and 0.7295 mPa·s
308.15 K, 100 kPa | 0.682 mPa·s
308.15 K, 101 kPa | 0.6929 mPa·s
313 K, 101.33 kPa | 0.639 mPa·s
323 K, 101.33 kPa | 0.573 mPa·s
323.15 K, 101 kPa | 0.5724 mPa·s

ClCCl
Settings | viscosity
293.15 K, 101 kPa | 0.428 mPa·s
298 K, 101 kPa | 0.433 mPa·s
298.15 K, 101.33 kPa | 0.38 mPa·s and 0.406 mPa·s and 0.401 mPa·s
303.15 K, 101.3 kPa | 0.394 mPa·s
303.15 K, 101.33 kPa | 0.369 mPa·s
308.15 K, 101.33 kPa | 0.362 mPa·s

O=S(=O)(O)O
101 kPa
Settings | viscosity [mPa·s]
293.15 K | 28.7
313.15 K | 16
323.15 K | 12.5

C[Si]1(C)O[Si](C)(C)O[Si](C)(C)O[Si](C)(C)O1 + c1ccccc1
[1], 101 kPa
Settings | viscosity [mPa·s]
298.15 K, x1 = 0.0341 | 0.6224
298.15 K, x1 = 0.0699 | 0.6486
298.15 K, x1 = 0.1407 | 0.7099
298.15 K, x1 = 0.2235 | 0.7944
298.15 K, x1 = 0.2938 | 0.875
298.15 K, x1 = 0.3751 | 0.9814
298.15 K, x1 = 0.4689 | 1.113
298.15 K, x1 = 0.6211 | 1.363
298.15 K, x1 = 0.6777 | 1.466
298.15 K, x1 = 0.751 | 1.608
298.15 K, x1 = 0.8434 | 1.804
298.15 K, x1 = 0.8753 | 1.88
298.15 K, x1 = 0.9028 | 1.939
298.15 K, x1 = 0.9291 | 2.01
308.15 K, x1 = 0.0886 | 0.5768
308.15 K, x1 = 0.3517 | 0.818
308.15 K, x1 = 0.602 | 1.127
308.15 K, x1 = 0.7741 | 1.39
308.15 K, x1 = 0.8544 | 1.527
308.15 K, x1 = 0.9373 | 1.682
318.15 K, x1 = 0.0888 | 0.507
318.15 K, x1 = 0.3526 | 0.714
318.15 K, x1 = 0.6036 | 0.971
318.15 K, x1 = 0.7763 | 1.186
318.15 K, x1 = 0.8562 | 1.298
318.15 K, x1 = 0.9134 | 1.393

CC(=O)O + c1ccncc1
[1]
Settings | viscosity [mPa·s]
293.15 K, 101 kPa, x2 = 0.104 | 4.421
293.15 K, 101 kPa, x2 = 0.2205 | 5.037
293.15 K, 101 kPa, x2 = 0.383 | 3.024
293.15 K, 101 kPa, x2 = 0.401 | 2.885
293.15 K, 101 kPa, x2 = 0.481 | 2.188
293.15 K, 101 kPa, x2 = 0.579 | 1.762
293.15 K, 101 kPa, x2 = 0.738 | 1.289
303.15 K, 101 kPa, x1 = 0.135 | 0.9842
303.15 K, 101 kPa, x1 = 0.2599 | 1.139
303.15 K, 101 kPa, x1 = 0.3756 | 1.346
303.15 K, 101 kPa, x1 = 0.4837 | 1.648
303.15 K, 101 kPa, x1 = 0.5841 | 2.075
303.15 K, 101 kPa, x1 = 0.6781 | 2.704
303.15 K, 101 kPa, x1 = 0.766 | 3.398
303.15 K, 101 kPa, x1 = 0.8509 | 3.624
303.15 K, 101 kPa, x1 = 0.9266 | 2.558
308.15 K, 101.33 kPa, x2 = 0.15 | 3.2
308.15 K, 101.33 kPa, x2 = 0.2 | 3.17
308.15 K, 101.33 kPa, x2 = 0.25 | 2.887
308.15 K, 101.33 kPa, x2 = 0.3 | 2.55
308.15 K, 101.33 kPa, x2 = 0.4 | 1.928
308.15 K, 101.33 kPa, x2 = 0.6 | 1.27
308.15 K, 101.33 kPa, x2 = 0.8 | 1.052
313.15 K, 101.33 kPa, x1 = 0.5 | 1.68
313.15 K, 101.33 kPa, x1 = 0.8 | 2.91
313.15 K, 101.33 kPa, x1 = 0.825 | 2.93
313.15 K, 101.33 kPa, x1 = 0.85 | 2.85
318.15 K, 101.33 kPa, x2 = 0.15 | 2.35
318.15 K, 101.33 kPa, x2 = 0.2 | 2.38
318.15 K, 101.33 kPa, x2 = 0.25 | 2.2
318.15 K, 101.33 kPa, x2 = 0.3 | 1.985
318.15 K, 101.33 kPa, x2 = 0.4 | 1.52
318.15 K, 101.33 kPa, x2 = 0.6 | 1.07
318.15 K, 101.33 kPa, x2 = 0.8 | 0.896

CCOC(N)=O + c1ccncc1
[1], 298.15 K, 101 kPa
Settings | viscosity [mPa·s]
x1 = 0.0815 | 1.07
x1 = 0.1351 | 1.202
